Measurements published in patent publication US11021467B2, “Phosphatidylinositol 3-kinase inhibitors” (Gilead Sciences, Inc., priority 2014, dated 2021).

Experiments:
Assay in all cases: TR-FRET enzymatic activity assay against PI3K isoforms
Format in all cases: biochemical
PI3Kγ = PI3Kγ (Homo sapiens (Human), UniProt P48736); settings: 2×Km ATP, 30 minutes at 25° C.
Description: (§1) The compounds of formula (I) were characterized for their enzymatic activity against the PI3K isoforms. […] TR-FRET monitored the formation of 3,4,5-inositol triphosphate molecule that competed with fluorescently labeled PIP3 for binding to the GRP-1 pleckstrin homology domain protein.

PI3Kδ = PI3Kδ (Homo sapiens (Human), UniProt O00329); settings: 2×Km ATP, 30 minutes at 25° C.
Description: as §1

PI3Kβ = PI3Kβ (Homo sapiens (Human), UniProt P42338); settings: PI3Kβ, TR-FRET, 2×Km ATP, 30 minutes at 25° C.
Description: as §1

Sequence of PI3Kβ (P42338 whole entry): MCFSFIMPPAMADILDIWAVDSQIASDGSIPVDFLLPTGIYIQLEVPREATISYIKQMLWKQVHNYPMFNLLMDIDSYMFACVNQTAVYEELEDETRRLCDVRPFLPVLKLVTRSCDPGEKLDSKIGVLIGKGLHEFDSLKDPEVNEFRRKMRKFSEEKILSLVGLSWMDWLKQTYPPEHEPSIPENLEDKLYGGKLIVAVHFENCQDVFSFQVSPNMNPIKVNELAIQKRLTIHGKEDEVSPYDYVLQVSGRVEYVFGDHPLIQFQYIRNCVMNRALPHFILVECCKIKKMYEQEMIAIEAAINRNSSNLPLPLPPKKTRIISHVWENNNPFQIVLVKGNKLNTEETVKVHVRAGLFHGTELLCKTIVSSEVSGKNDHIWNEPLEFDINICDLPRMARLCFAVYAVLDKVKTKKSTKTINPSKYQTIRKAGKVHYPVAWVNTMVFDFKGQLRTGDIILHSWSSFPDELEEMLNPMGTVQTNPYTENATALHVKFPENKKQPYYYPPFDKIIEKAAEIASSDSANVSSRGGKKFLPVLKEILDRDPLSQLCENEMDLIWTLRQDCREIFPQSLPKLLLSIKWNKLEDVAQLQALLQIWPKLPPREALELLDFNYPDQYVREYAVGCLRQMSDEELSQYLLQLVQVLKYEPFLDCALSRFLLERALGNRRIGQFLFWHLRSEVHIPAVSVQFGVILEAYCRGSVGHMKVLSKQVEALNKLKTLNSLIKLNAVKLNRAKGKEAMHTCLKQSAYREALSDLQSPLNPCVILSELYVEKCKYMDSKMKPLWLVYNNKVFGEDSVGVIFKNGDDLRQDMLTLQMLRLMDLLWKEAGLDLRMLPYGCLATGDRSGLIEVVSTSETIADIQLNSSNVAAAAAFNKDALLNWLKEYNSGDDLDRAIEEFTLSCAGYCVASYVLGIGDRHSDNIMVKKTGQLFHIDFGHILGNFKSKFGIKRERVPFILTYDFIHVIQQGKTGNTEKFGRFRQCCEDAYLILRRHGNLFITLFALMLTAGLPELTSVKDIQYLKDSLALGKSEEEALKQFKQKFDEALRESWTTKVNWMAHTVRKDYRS
Sequence of PI3Kβ (P27986 whole entry partner): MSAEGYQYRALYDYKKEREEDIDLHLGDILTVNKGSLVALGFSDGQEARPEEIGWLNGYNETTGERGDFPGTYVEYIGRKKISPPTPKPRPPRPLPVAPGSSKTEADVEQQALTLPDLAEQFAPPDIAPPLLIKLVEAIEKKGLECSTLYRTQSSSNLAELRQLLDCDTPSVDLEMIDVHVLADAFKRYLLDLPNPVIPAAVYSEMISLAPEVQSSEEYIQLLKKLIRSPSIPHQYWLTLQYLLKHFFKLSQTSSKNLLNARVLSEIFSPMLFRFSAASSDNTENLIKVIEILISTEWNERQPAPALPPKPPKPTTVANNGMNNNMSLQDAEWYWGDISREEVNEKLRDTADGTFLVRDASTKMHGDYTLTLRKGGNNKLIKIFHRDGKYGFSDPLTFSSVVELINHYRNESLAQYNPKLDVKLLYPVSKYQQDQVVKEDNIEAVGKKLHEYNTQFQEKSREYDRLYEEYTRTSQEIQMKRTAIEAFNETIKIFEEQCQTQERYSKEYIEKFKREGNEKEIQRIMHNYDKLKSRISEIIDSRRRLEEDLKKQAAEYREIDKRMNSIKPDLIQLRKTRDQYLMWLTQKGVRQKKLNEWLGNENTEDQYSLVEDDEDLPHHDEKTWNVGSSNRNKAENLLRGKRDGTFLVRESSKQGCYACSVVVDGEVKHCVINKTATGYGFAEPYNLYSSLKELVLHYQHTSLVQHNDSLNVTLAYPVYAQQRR
Sequence of PI3Kδ (O00329 whole entry): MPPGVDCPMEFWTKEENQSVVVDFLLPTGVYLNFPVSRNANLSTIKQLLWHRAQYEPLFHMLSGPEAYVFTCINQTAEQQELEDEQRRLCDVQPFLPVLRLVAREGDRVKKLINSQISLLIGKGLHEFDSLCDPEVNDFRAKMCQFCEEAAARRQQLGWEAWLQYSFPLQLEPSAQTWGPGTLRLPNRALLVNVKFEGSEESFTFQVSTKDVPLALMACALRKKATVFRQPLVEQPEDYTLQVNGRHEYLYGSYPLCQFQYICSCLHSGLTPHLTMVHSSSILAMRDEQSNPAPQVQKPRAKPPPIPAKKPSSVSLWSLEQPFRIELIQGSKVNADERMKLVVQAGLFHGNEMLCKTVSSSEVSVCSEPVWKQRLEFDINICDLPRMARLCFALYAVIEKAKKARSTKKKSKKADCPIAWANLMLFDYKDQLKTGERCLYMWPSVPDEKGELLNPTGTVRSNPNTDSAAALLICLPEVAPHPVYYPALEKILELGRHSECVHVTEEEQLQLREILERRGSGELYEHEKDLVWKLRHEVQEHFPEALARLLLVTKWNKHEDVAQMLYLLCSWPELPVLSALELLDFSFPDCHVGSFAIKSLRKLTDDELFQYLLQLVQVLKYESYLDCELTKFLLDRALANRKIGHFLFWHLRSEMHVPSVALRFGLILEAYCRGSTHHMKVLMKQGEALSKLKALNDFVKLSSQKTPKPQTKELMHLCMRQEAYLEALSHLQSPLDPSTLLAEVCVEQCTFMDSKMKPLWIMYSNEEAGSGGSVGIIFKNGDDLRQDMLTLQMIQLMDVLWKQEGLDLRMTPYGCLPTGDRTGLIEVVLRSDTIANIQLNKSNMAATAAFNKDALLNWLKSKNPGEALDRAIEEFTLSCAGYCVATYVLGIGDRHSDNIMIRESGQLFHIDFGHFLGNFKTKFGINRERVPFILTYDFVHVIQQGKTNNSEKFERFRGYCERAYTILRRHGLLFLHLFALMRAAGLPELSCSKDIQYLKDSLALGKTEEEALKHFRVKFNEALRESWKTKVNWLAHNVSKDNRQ
Sequence of PI3Kδ (P27986 whole entry partner): as the sequence (P27986 whole entry partner) above
Sequence of PI3Kγ (P48736 whole entry, the tested form may be a part, canonical isoform): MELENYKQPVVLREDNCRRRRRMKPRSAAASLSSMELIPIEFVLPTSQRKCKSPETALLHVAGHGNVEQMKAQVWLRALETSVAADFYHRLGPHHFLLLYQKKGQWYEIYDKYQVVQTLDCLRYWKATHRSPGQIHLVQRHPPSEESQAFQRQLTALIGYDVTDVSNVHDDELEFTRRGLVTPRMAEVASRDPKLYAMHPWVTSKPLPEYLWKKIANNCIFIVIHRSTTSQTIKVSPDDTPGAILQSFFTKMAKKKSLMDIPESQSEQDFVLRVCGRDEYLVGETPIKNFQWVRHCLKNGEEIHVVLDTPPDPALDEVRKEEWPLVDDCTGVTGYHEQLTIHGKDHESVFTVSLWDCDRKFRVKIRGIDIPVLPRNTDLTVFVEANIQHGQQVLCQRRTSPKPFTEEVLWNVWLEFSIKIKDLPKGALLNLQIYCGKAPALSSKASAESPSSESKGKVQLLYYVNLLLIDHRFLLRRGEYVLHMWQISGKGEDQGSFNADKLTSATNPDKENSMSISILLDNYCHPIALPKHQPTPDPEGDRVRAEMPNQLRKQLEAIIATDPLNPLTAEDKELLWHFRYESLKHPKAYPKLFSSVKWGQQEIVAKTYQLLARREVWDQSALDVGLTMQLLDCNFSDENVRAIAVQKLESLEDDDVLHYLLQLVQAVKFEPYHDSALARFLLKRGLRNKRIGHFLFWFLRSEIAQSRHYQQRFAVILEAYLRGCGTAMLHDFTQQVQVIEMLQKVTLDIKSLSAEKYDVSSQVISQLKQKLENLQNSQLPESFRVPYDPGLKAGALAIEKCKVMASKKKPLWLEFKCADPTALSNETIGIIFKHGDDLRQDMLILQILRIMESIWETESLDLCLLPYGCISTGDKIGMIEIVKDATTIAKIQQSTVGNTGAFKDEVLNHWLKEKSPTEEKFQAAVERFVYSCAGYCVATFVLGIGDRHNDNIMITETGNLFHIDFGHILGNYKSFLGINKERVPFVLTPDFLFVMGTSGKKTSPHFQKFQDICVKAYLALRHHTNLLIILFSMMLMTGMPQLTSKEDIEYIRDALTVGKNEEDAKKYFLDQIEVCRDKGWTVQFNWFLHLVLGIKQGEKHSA

Compound | IC50 (PI3Kγ) [µM] | IC50 (PI3Kδ) [µM] | IC50 (PI3Kβ) [µM]
C[C@H](Nc1nc(N)nc(N)c1C#N)c1nc2cccc(Cl)c2c(=O)n1CCCN1CCOCC1 [Compound 127, (S)-2,4-diamino-6-((1-(5-chloro-3-(3-morpholinopropyl)-4-oxo-3,4-dihydroquinazolin-2-yl)ethyl)amino)pyrimidine-5-carbonitrile] | 0.72 | 0.002 | 0.13
CCOCCn1c([C@H](C)Nc2nc(N)nc(N)c2C#N)nc2cccc(Cl)c2c1=O [Compound 130, (S)-2,4-diamino-6-((1-(5-chloro-3-(2-ethoxyethyl)-4-oxo-3,4-dihydroquinazolin-2-yl)ethyl)amino)pyrimidine-5-carbonitrile] | 0.41 | 0.003 | 0.12
COC[C@H](C)n1c([C@H](C)Nc2nc(N)nc(N)c2C#N)nc2cccc(Cl)c2c1=O [Compound 132, 2,4-diamino-6-(((S)-1-(5-chloro-3-((S)-1-methoxypropan-2-yl)-4-oxo-3,4-dihydroquinazolin-2-yl)ethyl)amino)pyrimidine-5-carbonitrile] | 0.33 | 0.002 | 0.058
C[C@H](Nc1ncnc(N)c1C#N)c1nc2cccc(Cl)c2c(=O)n1CCN1CCCC1 [Compound 136, (S)-4-amino-6-((1-(5-chloro-4-oxo-3-(2-(pyrrolidin-1-yl)ethyl)-3,4-dihydroquinazolin-2-yl)ethyl)amino)pyrimidine-5-carbonitrile] | ≥ 10 | 0.025 | 0.99
C[C@H](Nc1nc(N)nc(N)c1C#N)c1nc2cccc(Cl)c2c(=O)n1CCN1CCCC1 [Compound 137, (S)-2,4-diamino-6-((1-(5-chloro-4-oxo-3-(2-(pyrrolidin-1-yl)ethyl)-3,4-dihydroquinazolin-2-yl)ethyl)amino)pyrimidine-5-carbonitrile] | ≥ 10 | 0.027 | 0.76
C[C@H](Nc1ncnc(N)c1C#N)c1nc2cccc(Cl)c2c(=O)n1C[C@H](O)CO [Compound 143] | 4.24 | 0.034 | 0.374

The next lines start with the values.

IC50 (PI3Kγ) [µM] | IC50 (PI3Kδ) [µM] | IC50 (PI3Kβ) [µM] | Compound
0.28 | 0.015 | 0.53 | C[C@H](Nc1nc(N)nc(N)c1C#N)c1nc2cccc(Cl)c2c(=O)n1CCC(=O)N(C)C [Compound 128, (S)-3-(5-chloro-2-(1-((2,6-diamino-5-cyanopyrimidin-4-yl)amino)ethyl)-4-oxoquinazolin-3(4H)-yl)-N,N-dimethylpropanamide]
0.53 | 0.002 | 0.29 | COC(C)(C)CCn1c([C@H](C)Nc2nc(N)nc(N)c2C#N)nc2cccc(Cl)c2c1=O [Compound 129, (S)-2,4-diamino-6-((1-(5-chloro-3-(3-methoxy-3-methylbutyl)-4-oxo-3,4-dihydroquinazolin-2-yl)ethyl)amino)pyrimidine-5-carbonitrile]
1.4 | 0.013 | 0.21 | COCC(COC)n1c([C@H](C)Nc2nc(N)nc(N)c2C#N)nc2cccc(Cl)c2c1=O [Compound 131, (S)-2,4-diamino-6-((1-(5-chloro-3-(1,3-dimethoxypropan-2-yl)-4-oxo-3,4-dihydroquinazolin-2-yl)ethyl)amino)pyrimidine-5-carbonitrile]
≥ 10 | 0.004 | 0.55 | C[C@H](Nc1ncnc(N)c1C#N)c1nc2cccc(Cl)c2c(=O)n1CCCN1CCCCC1 [Compound 134, (S)-4-amino-6-((1-(5-chloro-4-oxo-3-(3-(piperidin-1-yl)propyl)-3,4-dihydroquinazolin-2-yl)ethyl)amino)pyrimidine-5-carbonitrile]
≥ 10 | 0.006 | 0.64 | C[C@H](Nc1ncnc(N)c1C#N)c1nc2cccc(Cl)c2c(=O)n1CCCN1CCN(C)CC1 [Compound 135, (S)-4-amino-6-((1-(5-chloro-3-(3-(4-methylpiperazin-1-yl)propyl)-4-oxo-3,4-dihydroquinazolin-2-yl)ethyl)amino)pyrimidine-5-carbonitrile]
0.59 | 0.006 | 0.41 | C[C@H](Nc1nc(N)nc(N)c1C#N)c1nc2cccc(Cl)c2c(=O)n1CCc1ccn[nH]1 [Compound 140, (S)-4-((1-(3-(2-(1H-pyrazol-5-yl)ethyl)-5-chloro-4-oxo-3,4-dihydroquinazolin-2-yl)ethyl)amino)-2,6-diaminopyrimidine-5-carbonitrile]
≥ 10 | 0.087 | 0.527 | C[C@H](Nc1ncnc(N)c1C#N)c1nc2cccc(Cl)c2c(=O)n1C[C@@H](O)CO [Compound 142]
